The values below come from patent US4649156A, “6-nitroprostaglandin derivatives” (Teijin Limited, priority 1982, dated 1987).

One test concerns platelet aggregation. The test is described as follows: In vitro inhibitory activity of platelet aggregation (ADP-induced, platelet-rich plasma). It is filed as cell-based, rabbit (Japanese domestic white male rabbits). The settings on record: Oryctolagus cuniculus, rabbit PRP, 10 μM (final) ADP, pre-incubated at 37° C. for 2 minutes, read-out: IC50 (minimum concentration of the drug which inhibited more than 50% of platelet aggregation). Here is the method:
The in vitro platelet aggregation imhibiting activity of the compounds of the invention were examined by using rabbits. Blood was withdrawn from the ear vein of Japanese domestic white male rabbits weighing 2.5 to 3.5 kg. A mixture of a 3.8% trisodium citrate solution and the blood in a ratio of 1:9 was centrifuged at a speed of 1000 rpm for 10 minutes. The upper layer was separated as platelet-rich plasma (PRP). The lower layer was further centrifuged at a speed of 28000 rpm for 10 minutes. The upper layer was separated as platelet-poor plasma (PPP). The number of platelets was adjusted to 6×10^5 /μl to 7×10^5 […] by diluting the PRP with PPP. 25 microliters of the test compounds prepared as shown below was added in an amount of 25 to 250 microliters of PRP after the adjustment, and the mixture was pre-incubated at 37° C. for 2 minutes, and then 10 μM (final) of ADP was added. By using an aggregometer, changes in transmission were recorded.
The drug was dissolved in ethanol to a concentration of 10 mg/ml, and successively diluted with phosphate buffer (pH 7.4) prior to use.
The rate of inhibition of platelet aggregation was determined from the following equation. [formula] To : the transmittance of the system containing the phosphate buffer, T: The transmittance of the system to which the test drug was added. […]

Test [1] has as its system blood pressure and heart beat rate of rats. Put plainly: Measurement of the hypotensive activity (blood pressure and heart beat rate, i.v., anesthetized rats). It is filed as in vivo, rat (male wister rats). The settings on record: Rattus norvegicus, iv, urethane/α-chloralose anesthesia; for ED10: read-out: H-ED10 (dosage which caused a 10% increase of the heart rate); for ED20: read-out: P-ED20 (dosage which caused a 20% lowering of the mean blood pressure). On the procedure:
Measurement of the Hypotensive Activity
The actions of the 6-nitroprostaglandin E1 derivatives of the invention on the blood pressure and heart beat rate of rats were examined by intravenous injection under anesthesia.
Male wister rats weighing about 250 g were used. Urethane (500 mg/kg) and α-chloralose (100 mg/kg) were intraperitoneally administered to the rats. The rats were anesthetized and fixed in place.
Each of the test compounds was dissolved in a small amount of ethanol and diluted with physiological saline to adjust the final ethanol concentration to not more than 5%. The solution was intravenously injected into the rats through a catheter inserted into the femoral vein.
The blood pressure of the rats were measured by a pressure transducer through a catheter inserted into the carotid artery of the rats. The heart beat rate was determined from the blood pressure pulse.
The action of the test compound on the blood pressure was expressed as the dosage (p-EDz20, μg/kg) of the test compound which caused a 20% lowering of the mean blood pressure before administration of the compound. The action of the test compound on the heart rate was expressed as the dosage (H-ED10, μg/kg) of the test compound which caused a 10% increase of the heart rate from the heart beat rate before administration of the test compound.

The next test deals with indomethacin ulcer. Put plainly: Measurement of inhibitory activity on indomethacin ulcer. Type of test: in vivo, rat (wistar-strain male rats). The settings on record: indomethacin 20 mg/kg oral, n=8. On the procedure: Seven week-oil wistar-strain male rats (body weight 200 to 220 g) were fasted for 24 hours but water was provided freely, and then used in the following experiment.
Each of the test compounds suspended in phosphate Buffers (pH 7.4) was orally administered to the rats, and 30 minutes later, indomethacin was orally administered in a dose of 20 mg/kg. Six hours later, the animals were sacrificed. The abdomen was cut open, and the stomach was removed. 1% Even's blue was injected in an amount of 0.5 ml/rat into the rats through the tail vein under ether anesthesia 10 minutes before sacrificing.
12 ml of a 1% formalin was injected into the stomach and the stomach was further dipped in 1% formaline for about 10 minutes for the fixation. The stomach was cut open on the side of the greater curvature, and spread on a glass plate. The lengths of ulcers generated in the glandular stomach were measured by using a solid microscope. The sum of the lengths of the ulcers for each nimal was used as the ulcer index. The ulcer inhibiting ratio of the test compound was calculated in accordance with the following equation. [formula]
The control group was given phosphate buffer saline (pH 7.4) indomethacin alone.

Molecules are shown by their SMILES. In brackets after ≈: the same amount, converted by molar mass. Some results are limits rather than exact numbers.

For the molecule `CCCCC[C@H](O)/C=C/[C@H]1[C@H](O)CC(=O)[C@@H]1CC(CCCCC(=O)OC)[N+](=O)[O-]` (stereo partly drawn) [6-nitroprostaglandin E1 methyl ester], the IC50 in the test on platelet aggregation is 4.5 µg/mL (≈ 10.9 µM). Also, in test [1], the ED10 is above 0.01 mg/kg and the ED20 was 0.01 mg/kg.

As to `CCCC[C@H](C)C[C@H](O)/C=C/[C@H]1[C@H](O)CC(=O)[C@@H]1CC(CCCCC(=O)OC)[N+](=O)[O-]` (stereo partly drawn) [17(S),20-dimethyl-6-nitroprostaglandin E1 methyl ester], the IC50 with platelet aggregation was 0.017 µg/mL (≈ 0.0385 µM). Also, in test [1], the ED10 was above 0.01 mg/kg. Moreover, in test [1], the ED20 worked out at 0.0004 mg/kg. In addition, the “Inhibition (ulcer inhibiting ratio)” value is recorded as 12.6% with indomethacin ulcer (3 μg/kg oral), 51.0% with indomethacin ulcer (10 μg/kg oral) and 80.4% in the test with indomethacin ulcer (30 μg/kg oral). In addition, the Ulcer index in the test with indomethacin ulcer (3 μg/kg oral) came to 12.5 ± 3.2 mm; in the test on indomethacin ulcer (10 μg/kg oral), 7.0 ± 1.8 mm; in the test on indomethacin ulcer (30 μg/kg oral, **P < 0.01), 2.8 ± 1.2 mm.
